Square brackets hold non-standard residues; d marks the D form. Peptide text beside a SMILES is read from it. Hyp = O=C(O)[C@@H]1C[C@@H](O)CN1
Experiments:
[1] = target: T1, human NR2B (Homo sapiens, UniProt Q13224)
[2] = target: T1, human NR2B; assay: cell-based
[3] = target: NR2A (Homo sapiens, UniProt Q12879); format: cell-based
Sequence of NR2A (Q12879 whole entry, looked up): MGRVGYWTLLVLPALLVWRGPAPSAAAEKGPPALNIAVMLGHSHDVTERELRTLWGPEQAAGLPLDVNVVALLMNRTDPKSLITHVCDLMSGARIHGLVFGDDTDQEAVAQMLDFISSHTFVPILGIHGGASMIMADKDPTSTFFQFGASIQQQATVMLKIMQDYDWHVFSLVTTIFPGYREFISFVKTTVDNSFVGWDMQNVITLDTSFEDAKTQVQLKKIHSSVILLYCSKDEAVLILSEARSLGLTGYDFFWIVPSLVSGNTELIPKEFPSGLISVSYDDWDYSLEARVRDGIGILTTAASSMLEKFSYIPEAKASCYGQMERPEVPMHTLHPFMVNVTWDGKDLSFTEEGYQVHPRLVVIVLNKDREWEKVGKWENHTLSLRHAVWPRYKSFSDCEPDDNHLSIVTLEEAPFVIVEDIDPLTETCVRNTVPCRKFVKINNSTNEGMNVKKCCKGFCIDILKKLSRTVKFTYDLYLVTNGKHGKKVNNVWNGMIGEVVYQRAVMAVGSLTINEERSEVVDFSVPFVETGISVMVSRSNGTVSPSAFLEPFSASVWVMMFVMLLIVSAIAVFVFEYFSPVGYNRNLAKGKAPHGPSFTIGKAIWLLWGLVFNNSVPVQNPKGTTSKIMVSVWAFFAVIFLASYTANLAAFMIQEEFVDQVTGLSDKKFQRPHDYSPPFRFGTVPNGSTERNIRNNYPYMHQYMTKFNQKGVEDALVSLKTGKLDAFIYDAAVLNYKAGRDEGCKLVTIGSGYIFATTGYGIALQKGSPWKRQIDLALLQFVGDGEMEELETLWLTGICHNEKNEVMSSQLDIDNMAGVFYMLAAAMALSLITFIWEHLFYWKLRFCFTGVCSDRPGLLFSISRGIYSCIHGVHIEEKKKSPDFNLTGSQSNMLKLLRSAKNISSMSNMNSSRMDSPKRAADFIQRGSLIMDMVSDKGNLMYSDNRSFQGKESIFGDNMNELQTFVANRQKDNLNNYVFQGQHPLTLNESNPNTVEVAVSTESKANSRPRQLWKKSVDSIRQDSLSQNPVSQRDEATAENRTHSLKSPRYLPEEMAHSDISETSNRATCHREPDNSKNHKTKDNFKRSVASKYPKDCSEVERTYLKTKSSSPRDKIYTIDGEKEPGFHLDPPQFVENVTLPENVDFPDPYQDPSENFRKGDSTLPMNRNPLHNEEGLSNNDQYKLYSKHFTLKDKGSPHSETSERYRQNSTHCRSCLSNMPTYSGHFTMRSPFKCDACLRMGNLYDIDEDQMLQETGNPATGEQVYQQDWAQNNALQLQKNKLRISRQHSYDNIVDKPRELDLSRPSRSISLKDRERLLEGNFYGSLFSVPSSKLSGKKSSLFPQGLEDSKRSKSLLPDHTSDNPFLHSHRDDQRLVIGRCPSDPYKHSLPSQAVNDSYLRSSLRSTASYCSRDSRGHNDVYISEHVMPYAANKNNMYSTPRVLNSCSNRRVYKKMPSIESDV

T1 sequence (Q13224 whole entry, looked up): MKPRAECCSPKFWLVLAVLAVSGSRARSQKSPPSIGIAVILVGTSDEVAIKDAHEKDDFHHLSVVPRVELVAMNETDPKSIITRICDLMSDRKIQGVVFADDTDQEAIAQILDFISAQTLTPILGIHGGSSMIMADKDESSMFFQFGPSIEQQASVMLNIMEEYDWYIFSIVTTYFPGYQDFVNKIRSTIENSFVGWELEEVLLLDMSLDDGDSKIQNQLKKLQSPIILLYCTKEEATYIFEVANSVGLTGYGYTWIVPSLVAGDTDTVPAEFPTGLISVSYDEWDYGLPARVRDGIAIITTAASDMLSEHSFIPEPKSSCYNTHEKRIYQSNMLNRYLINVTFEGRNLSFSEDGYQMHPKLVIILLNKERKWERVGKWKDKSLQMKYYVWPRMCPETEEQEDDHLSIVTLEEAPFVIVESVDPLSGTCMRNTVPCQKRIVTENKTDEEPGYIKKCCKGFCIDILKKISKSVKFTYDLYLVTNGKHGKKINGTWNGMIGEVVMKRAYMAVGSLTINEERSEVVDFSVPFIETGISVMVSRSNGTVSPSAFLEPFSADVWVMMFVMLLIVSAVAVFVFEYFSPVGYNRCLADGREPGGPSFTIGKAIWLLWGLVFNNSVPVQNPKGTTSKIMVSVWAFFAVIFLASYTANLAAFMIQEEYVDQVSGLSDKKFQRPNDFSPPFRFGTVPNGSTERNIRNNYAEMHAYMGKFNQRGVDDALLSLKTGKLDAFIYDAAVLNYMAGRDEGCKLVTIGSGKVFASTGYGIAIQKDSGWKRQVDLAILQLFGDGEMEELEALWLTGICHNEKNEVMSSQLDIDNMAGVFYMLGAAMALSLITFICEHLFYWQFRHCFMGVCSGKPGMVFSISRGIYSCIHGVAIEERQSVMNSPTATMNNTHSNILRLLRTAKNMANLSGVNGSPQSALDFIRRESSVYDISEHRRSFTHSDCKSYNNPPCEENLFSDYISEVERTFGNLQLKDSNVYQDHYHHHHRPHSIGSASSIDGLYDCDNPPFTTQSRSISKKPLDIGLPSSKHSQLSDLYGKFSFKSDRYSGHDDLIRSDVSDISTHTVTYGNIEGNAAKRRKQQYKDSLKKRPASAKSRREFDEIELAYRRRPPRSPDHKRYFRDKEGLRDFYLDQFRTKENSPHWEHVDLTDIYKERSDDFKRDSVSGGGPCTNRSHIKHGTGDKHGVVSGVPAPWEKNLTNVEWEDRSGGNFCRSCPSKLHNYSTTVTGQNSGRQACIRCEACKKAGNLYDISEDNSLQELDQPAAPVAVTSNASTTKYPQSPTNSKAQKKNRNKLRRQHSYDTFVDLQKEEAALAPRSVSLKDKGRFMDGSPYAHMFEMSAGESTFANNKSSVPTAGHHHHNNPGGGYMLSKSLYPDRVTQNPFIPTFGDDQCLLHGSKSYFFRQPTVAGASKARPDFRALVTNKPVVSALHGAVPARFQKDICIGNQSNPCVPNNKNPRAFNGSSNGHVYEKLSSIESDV

## CC(C)C[C@H](NC(=O)[C@H](Cc1ccc(O)cc1)NC(=O)[C@H](Cc1ccc(O)cc1)NC(=O)[C@@H](N)CC(N)=O)C(=O)N[C@@H](Cc1ccc(O)cc1)C(=O)N1C[C@H](O)C[C@H]1C(=O)N[C@@H](C)C(=O)N[C@@H](CCCNC(=N)N)C(=O)N1C[C@H](O)C[C@H]1C(=O)N[C@@H](CCC(=O)O)C(=O)N[C@@H](CC(N)=O)C(=O)N[C@@H](CO)C(=O)N[C@H](Cc1c[nH]c2ccccc12)C(=O)N[C@@H](Cc1c[nH]c2ccccc12)C(=O)N[C@H](C(=O)O)[C@@H](C)O [conotoxin-Ac1] (H-NYYLY[Hyp]AR[Hyp]ENS[dW]WT-OH)
[1]
  The Inhibition of Currents (%) NR2B: 51.69%
[2]
  IC50: 8.22 ± 0.022 µM
[3]
  The Inhibition of Currents (%) NR2A: 7.22%
